Laboratory results reported in patent US20100168097A1, “Non-Nucleoside Reverse Transcriptase Inhibitors” (priority 2005, published 2010).
Where two headings read alike, the source gives them in different places.

How the values were obtained:
[1] = target: T1, mutant HIV reverse transcriptase, K103N mutation (Human immunodeficiency virus type 1 group M subtype B, UniProt P04585, K690N); assay: Analogous RT inhibition assay, K103N mutant; assay type: biochemical
T1 construct: made in house
Method: (§1) 100 μL reaction mixtures were initiated with a combination of primer-template substrate (10 nM final concentration) and dNTPs (0.6 μM dNTPs, 0.75 μM [^3H]-dGTP). The heterodimeric nucleic acid substrate was generated by annealing the DNA primer pD500 (described in Shaw-Reid et al., J. Biol. Chem., 278: 2777-2780; obtained from Integrated DNA Technologies) to t500, a 500 nucleotide RNA template created by in vitro transcription (see Shaw-Reid et al., J. Biol. Chem., 278: 2777-2780). After 1 hour incubation at 37° C., reactions were quenched by 10 μL streptavidin scintillation proximity assay beads (10 mg/mL, from Amersham Biosciences) in 0.5 M EDTA, pH 8. Microtiter plates were incubated an additional 10 minutes at 37° C. prior to quantification via Topcount (Packard).
(§2) Analogous assays were conducted substituting mutant HIV strains to determine the […] inhibition of compounds of the present invention against mutant HIV reverse transcriptase. In one strain the reverse transcriptase has the Y181C mutation and in the other strain the reverse transcriptase has the K103N mutation. The mutations were generated with the […] site-directed mutagenesis kit (Stratagene).

[2] = test system: acute HIV infection of T-lymphoid cells; assay: Assay for inhibition of HIV replication (spread assay); assay type: cell-based; conditions: Human immunodeficiency virus 1; inhibition of HIV replication in T-lymphoid cells
Method: An assay for the inhibition of acute HIV infection of T-lymphoid cells (alternatively referred to herein as the “spread assay”) was conducted in accordance with Vacca, J. P. et al., Proc. Natl. Acad. Sci. USA 1994, 91: 4096. […] The compounds of Examples 2-4 and 22 were not tested.

[3] = target: T2, mutant HIV reverse transcriptase, Y181C mutation (Human immunodeficiency virus type 1 group M subtype B, UniProt P04585, Y768C); assay: Analogous RT inhibition assay, Y181C mutant; assay type: biochemical
T2 construct: made in house
Method: as §1, §2

[4] = K103N mutant RT, tested up to 20 micromolar, read-out: IC50, K103N mutant assay
[5] = Y181C mutant RT, tested up to 20 micromolar, read-out: IC50, Y181C mutant assay

Structure (SMILES)	IC50 [1] [µM]	IC95 [2] [µM]	IC50 [3] [µM]	IC50 [1, 4] [µM]	IC50 [3, 5] [µM]
COCc1nc(-c2[nH]c3ccc(Cl)cc3c2S(=O)(=O)c2ccccc2)no1 [Example 1, 5-chloro-2-[5-(methoxymethyl)-1,2,4-oxadiazol-3-yl]-3-(phenylsulfonyl)-1H-indole]	> 20	< 1	> 20		
O=S(=O)(c1ccccc1)c1c(-c2nc(-c3ccccn3)cs2)[nH]c2ccc(Cl)cc12 [Example 3, 5-chloro-3-(phenylsulfonyl)-2-(4-pyridin-2-yl-1,3-thiazol-2-yl)-1H-indole]				> 20	> 20
O=S(=O)(c1ccccc1)c1c(-c2nc(-c3cccnc3)cs2)[nH]c2ccc(Cl)cc12 [Example 4, 5-chloro-3-(phenylsulfonyl)-2-(4-pyridin-3-yl-1,3-thiazol-2-yl)-1H-indole]				> 20	> 20
O=S(=O)(c1ccccc1)c1c(-c2noc(-c3ccccc3F)n2)[nH]c2ccc(Cl)cc12 [Example 7, 5-chloro-2-[5-(2-fluorophenyl)-1,2,4-oxadiazol-3-yl]-3-(phenylsulfonyl)-1H-indole]		< 1		> 20	> 20
O=S(=O)(c1ccccc1)c1c(-c2noc([C@@H]3C[C@H]3c3ccccc3)n2)[nH]c2ccc(Cl)cc12 [Example 8, 5-chloro-2-{5-[(1R,2R)-2-phenylcyclopropyl]-1,2,4-oxadiazol-3-yl}-3-(phenylsulfonyl)-1H-indole]		2.5		> 20	> 20
O=S(=O)(c1ccccc1)c1c(-c2noc(COc3ccccc3)n2)[nH]c2ccc(Cl)cc12 [Example 9, 5-chloro-2-[5-(phenoxymethyl)-1,2,4-oxadiazol-3-yl]-3-(phenylsulfonyl)-1H-indole]		< 1		> 20	> 20
O=S(=O)(c1ccccc1)c1c(-c2noc(-c3ccncc3)n2)[nH]c2ccc(Cl)cc12 [Example 10, 5-chloro-3-(phenylsulfonyl)-2-(5-pyridin-4-yl-1,2,4-oxadiazol-3-yl)-1H-indole]		< 1	1 to 20	> 20	
O=S(=O)(c1ccccc1)c1c(-c2noc(-c3ccc(F)cc3F)n2)[nH]c2ccc(Cl)cc12 [Example 11, 5-chloro-2-[5-(2,4-difluorophenyl)-1,2,4-oxadiazol-3-yl]-3-(phenylsulfonyl)-1H-indole]		< 1		> 20	> 20
Cc1nc(-c2[nH]c3ccc(Cl)cc3c2S(=O)(=O)c2ccccc2)no1 [Example 12, 5-chloro-2-(5-methyl-1,2,4-oxadiazol-3-yl)-3-(phenylsulfonyl)-1H-indole]		< 1		> 20	> 20
O=S(=O)(c1ccccc1)c1c(-c2noc(C3CCC3)n2)[nH]c2ccc(Cl)cc12 [Example 13, 5-chloro-2-(5-cyclobutyl-1,2,4-oxadiazol-3-yl)-3-(phenylsulfonyl)-1H-indole]		< 1		> 20	> 20
O=S(=O)(c1ccccc1)c1c(-c2noc(Cc3ccccc3)n2)[nH]c2ccc(Cl)cc12 [Example 14, 2-(5-benzyl-1,2,4-oxadiazol-3-yl)-5-chloro-3-(phenylsulfonyl)-1H-indole]		< 1		> 20	> 20
CCc1nc(-c2[nH]c3ccc(Cl)cc3c2S(=O)(=O)c2ccccc2)no1 [Example 15, 5-chloro-2-(5-ethyl-1,2,4-oxadiazol-3-yl)-3-(phenylsulfonyl)-1H-indole]		< 1		> 20	> 20
Cc1cnc(-c2[nH]c3ccc(Br)cc3c2S(=O)(=O)N2CCCC2)[nH]1 [Example 16, 5-Bromo-2-(4-methyl-1H-imidazol-2-yl)-3-(pyrrolidin-1-ylsulfonyl)-1H-indole]		< 1	< 1	< 1	
O=S(=O)(c1c(-c2nc3ccccc3[nH]2)[nH]c2ccc(Br)cc12)N1CCCC1 [Example 17, 2-[5-bromo-3-(pyrrolidin-1-ylsulfonyl)-1H-indol-2-yl]-1H-benzimidazole]		< 1	< 1	< 1	
O=S(=O)(c1c(-c2nc([C@H](O)[C@@H](O)[C@@H](O)CO)c[nH]2)[nH]c2ccc(Br)cc12)N1CCCC1 [Example 18, (1S,2R,3S)-1-{2-[5-bromo-3-(pyrrolidin-1-ylsulfonyl)-1H-indol-2-yl}-1H-imidazol-4-yl}butane-1,2,3,4-tetrol]		< 1	1 to 20	< 1	
O=S(=O)(c1c(-c2nc(-c3ccc(N4CCOCC4)cc3)c[nH]2)[nH]c2ccc(Br)cc12)N1CCCC1 [Example 19, 5-bromo-2-[4-(4-morpholin-4-ylphenyl)-1H-imidazol-2-yl]-3-(pyrrolidin-1-ylsulfonyl)-1H-indole]		< 1	> 20	< 1	
CCC(OC)c1cnc(-c2[nH]c3ccc(Br)cc3c2S(=O)(=O)N2CCCC2)[nH]1 (stereo not drawn) [Example 21, 5-bromo-2-[4-(1-methoxypropyl)-1H-imidazol-2-yl]-3-(pyrrolidin-1-ylsulfonyl)-1H-indole]		< 1	1 to 20	< 1	
O=S(=O)(c1c(-c2nc(-c3ccc(F)cc3F)c[nH]2)[nH]c2ccc(Br)cc12)N1CCCC1 [Example 22, 5-bromo-2-[4-(2,4-difluorophenyl)-1H-imidazol-2-yl]-3-(pyrrolidin-1-ylsulfonyl)-1H-indole]				< 1	> 20
O=S(=O)(c1c(-c2ncc(-c3ccccc3)[nH]2)[nH]c2ccc(Br)cc12)N1CCCC1 [Example 23, 5-bromo-2-(4-phenyl-1H-imidazol-2-yl)-3-(pyrrolidin-1-ylsulfonyl)-1H-indole]		< 1		< 1	> 20
O=S(=O)(c1c(-c2nc(-c3ccc(Cl)cc3)c[nH]2)[nH]c2ccc(Br)cc12)N1CCCC1 [Example 24, 5-bromo-2-[4-(4-chlorophenyl)-1H-imidazol-2-yl]-3-(pyrrolidin-1-ylsulfonyl)-1H-indole]		< 1		< 1	> 20
O=S(=O)(c1c(-c2nc(-c3ccc(F)cc3)c[nH]2)[nH]c2ccc(Br)cc12)N1CCCC1 [Example 25, 5-bromo-2-[4-(4-fluorophenyl)-1H-imidazol-2-yl]-3-(pyrrolidin-1-ylsulfonyl)-1H-indole]		< 1		< 1	> 20
O=S(=O)(c1c(-c2nc(-c3ccc(F)c(F)c3)c[nH]2)[nH]c2ccc(Br)cc12)N1CCCC1 [Example 26, 5-bromo-2-[4-(3,4-difluorophenyl)-1H-imidazol-2-yl]-3-(pyrrolidin-1-ylsulfonyl)-1H-indole]		< 1		< 1	> 20
O=S(=O)(c1c(-c2nc(-c3ccc(O)cc3)c[nH]2)[nH]c2ccc(Br)cc12)N1CCCC1 [Example 27, 4-{2-[5-bromo-3-(pyrrolidin-1-ylsulfonyl)-1H-indol-2-yl]-1H-imidazol-4-yl}phenol]		< 1		< 1	1 to 20
COc1ccc(-c2c[nH]c(-c3[nH]c4ccc(Br)cc4c3S(=O)(=O)N3CCCC3)n2)cc1 [Example 28, 5-bromo-2-[4-(4-methoxyphenyl)-1H-imidazol-2-yl]-3-(pyrrolidin-1-ylsulfonyl)-1H-indole]		< 1		< 1	1 to 20
O=S(=O)(c1c(-c2nc(-c3ccc4c(c3)OCO4)c[nH]2)[nH]c2ccc(Br)cc12)N1CCCC1 [Example 30, 2-[4-(1,3-benzodioxol-5-yl)-1H-imidazol-2-yl]-5-bromo-3-(pyrrolidin-1-ylsulfonyl)-1H-indole]		< 1		< 1	1 to 20
COC(=O)c1cc(-c2c[nH]c(-c3[nH]c4ccc(Br)cc4c3S(=O)(=O)N3CCCC3)n2)ccc1O [Example 31, methyl 5-{2-[5-bromo-3-(pyrrolidin-1-ylsulfonyl)-1H-indol-2-yl]-1H-imidazol-4-yl}-2-hydroxybenzoate]		< 1	> 20	< 1	
O=[N+]([O-])c1ccc(-c2c[nH]c(-c3[nH]c4ccc(Br)cc4c3S(=O)(=O)N3CCCC3)n2)cc1 [Example 32, 5-bromo-2-[4-(4-nitrophenyl)-1H-imidazol-2-yl]-3-(pyrrolidin-1-ylsulfonyl)-1H-indole]		< 1	1 to 20	< 1	
N#Cc1ccc(-c2c[nH]c(-c3[nH]c4ccc(Br)cc4c3S(=O)(=O)N3CCCC3)n2)cc1 [Example 33, 4-{2-[5-bromo-3-(pyrrolidin-1-ylsulfonyl)-1H-indol-2-yl]-1H-imidazol-4-yl}benzonitrile]		< 1	> 20	< 1	
